# Biological target: Xanthine dehydrogenase/oxidase (Bos taurus, UniProt P80457)
# Test: XO inhibitory assay
# Details: pH 7.5; 25 °C
# Method: The reaction mixture contained 1.5 mL of 50 mM potassium phosphate buffer (pH 7.5), 1 mL test sample solutions (5, 10, 25, 50, and 100 µM) was dissolved in DMSO, 0.5 mL of XO enzyme solution (0.2 units/mL of xanthine oxidase in phosphate buffer). The reaction mixture was pre-incubated at room temperature for 15 min, followed by the addition of 1 mL of substrate solution (0.10 mM of xanthine). The mixture was further incubated at room temperature for 30 min and stopped with the addition of 1 mL of 1 M HCl.
# Sequence of Xanthine dehydrogenase/oxidase (P80457 whole entry): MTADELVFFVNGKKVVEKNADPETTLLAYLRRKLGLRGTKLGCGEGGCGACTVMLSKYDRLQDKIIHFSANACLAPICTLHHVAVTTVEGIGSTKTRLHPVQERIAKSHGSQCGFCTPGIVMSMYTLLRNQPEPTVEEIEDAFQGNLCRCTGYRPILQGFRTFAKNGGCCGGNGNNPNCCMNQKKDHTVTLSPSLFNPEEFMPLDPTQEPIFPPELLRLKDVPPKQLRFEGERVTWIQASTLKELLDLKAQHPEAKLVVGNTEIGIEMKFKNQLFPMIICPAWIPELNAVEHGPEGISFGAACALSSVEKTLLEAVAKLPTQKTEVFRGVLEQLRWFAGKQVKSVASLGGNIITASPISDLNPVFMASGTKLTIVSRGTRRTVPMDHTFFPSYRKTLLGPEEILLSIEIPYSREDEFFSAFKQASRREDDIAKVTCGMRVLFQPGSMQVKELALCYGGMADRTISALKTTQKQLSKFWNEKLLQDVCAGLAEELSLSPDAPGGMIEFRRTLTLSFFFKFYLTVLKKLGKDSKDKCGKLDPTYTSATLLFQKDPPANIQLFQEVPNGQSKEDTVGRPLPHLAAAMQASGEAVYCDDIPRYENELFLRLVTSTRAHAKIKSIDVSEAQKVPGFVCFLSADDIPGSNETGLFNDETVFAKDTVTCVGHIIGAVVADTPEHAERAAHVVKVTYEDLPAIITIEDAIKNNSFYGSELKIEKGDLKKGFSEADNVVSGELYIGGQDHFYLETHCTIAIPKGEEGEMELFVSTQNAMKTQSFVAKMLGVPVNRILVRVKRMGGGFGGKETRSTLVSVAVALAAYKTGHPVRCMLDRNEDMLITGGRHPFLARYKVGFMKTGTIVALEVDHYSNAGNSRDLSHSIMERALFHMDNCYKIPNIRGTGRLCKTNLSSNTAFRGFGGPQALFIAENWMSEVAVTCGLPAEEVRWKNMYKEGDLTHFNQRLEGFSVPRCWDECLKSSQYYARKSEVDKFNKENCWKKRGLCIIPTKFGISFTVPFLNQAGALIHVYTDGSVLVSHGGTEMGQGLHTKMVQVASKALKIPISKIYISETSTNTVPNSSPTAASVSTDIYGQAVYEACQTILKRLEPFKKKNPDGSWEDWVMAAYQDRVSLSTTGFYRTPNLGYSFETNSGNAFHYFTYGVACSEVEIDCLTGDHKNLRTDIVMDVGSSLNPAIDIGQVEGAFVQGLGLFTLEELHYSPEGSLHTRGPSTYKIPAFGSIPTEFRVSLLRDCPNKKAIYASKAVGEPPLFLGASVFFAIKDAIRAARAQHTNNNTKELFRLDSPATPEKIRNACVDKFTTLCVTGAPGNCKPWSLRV
row,IC50 [µM],SMILES
1,41.7,Nc1ccccc1-c1cc(-c2ccccc2)n[nH]1
2,11,"Oc1c(Cl)cc(Cl)cc1C1Nc2ccccc2-c2cc(-c3ccccc3)nn21 (centres undefined) [2,4‐dichloro‐6‐{2‐phenyl‐5H,6H‐pyrazolo[1,5‐ c]quinazolin‐5‐yl}phenol (6g)]"
3,43.6,"COc1ccc(C2Nc3ccccc3-c3cc(-c4ccccc4)nn32)cc1OC (centres undefined) [5‐(3,4‐dimethoxyphenyl)‐2‐phenyl‐5H,6H‐ pyrazolo[1,5‐c]quinazoline (6e)]"
4,20.9,"O=[N+]([O-])c1cccc(C2Nc3ccccc3-c3cc(-c4ccccc4)nn32)c1 (centres undefined) [5‐(3‐nitrophenyl)‐2‐phenyl‐5H,6H‐pyrazolo[1,5‐ c]quinazoline (6h)]"

# From BindingDB's records for doi:10.1016/j.bioorg.2014.08.007 (Central University of Punjab, 2014)
